Laboratory results as given in patent US10435412B2, “Selective modulators of the activity of the GPR55 receptor: chromenopyrazole derivatives” (Consejo Superior de Investigaciones Cientificas (CSIC), priority 2015, dated 2019).

How the values were obtained:
[1] = biological target: T1, GPR55 receptor (Homo sapiens, UniProt Q9Y2T6); experiment: GPR55 agonist activity, real-time cell impedance (xCELLigence) in hGPR55-HEK293 cells; assay type: cell-based; conditions: mean (95% confidence interval); for Emax: read-out: Emax (%), agonist action on GPR55
T1 construct: expressed in transfected cells
T1 sequence (Q9Y2T6 whole entry): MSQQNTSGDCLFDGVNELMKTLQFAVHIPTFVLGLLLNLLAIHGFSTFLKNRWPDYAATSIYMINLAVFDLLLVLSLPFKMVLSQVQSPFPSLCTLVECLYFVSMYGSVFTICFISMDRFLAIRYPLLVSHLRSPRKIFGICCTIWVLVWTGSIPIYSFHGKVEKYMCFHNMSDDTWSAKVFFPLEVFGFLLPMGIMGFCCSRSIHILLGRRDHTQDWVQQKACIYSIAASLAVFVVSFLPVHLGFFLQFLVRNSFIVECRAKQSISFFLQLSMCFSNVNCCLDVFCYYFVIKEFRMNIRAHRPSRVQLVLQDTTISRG
Protocol: (§1) In the present invention, the activity of the compounds of the invention on the GPR55 receptor was assessed by performing in vitro assays with real-time cell impedance measurements (xCELLigence experiments). These assays were performed on a HEK293 human embryonic kidney cell line overexpressing the recombinant GPR55 receptor in stable form (hGPR55-HEK293). The cells were seeded one day prior to carrying out the stimulation with the exemplary compounds of the present invention.
Activation of the GPR55 receptor by an agonist compound causes a cellular impedance detected by the system and compared to lysophosphatidylinositol (LPI), a reference GPR55 ligand. The effect of LPI measured at a concentration of 1 μM was set at 100%. […] Therefore, dose-response curves were determined at this time. Cell impedance values were normalized for each well, just prior to addition of the inventive compound of the invention to be evaluated.

[2] = biological target: T1, GPR55 receptor; experiment: GPR55 antagonist activity: inhibition of LPI-mediated GPR55 stimulation (xCELLigence) in hGPR55-HEK293 cells; assay type: cell-based; conditions: LPI alone or with example compound at 1 μM, mean (95% confidence interval)
Protocol: as §1
The ability of the exemplary compounds of the patent to inhibit LPI-mediated GPR55 receptor stimulation has been evaluated.
Values represent the mean with a 95% confidence interval calculated with 4 independent experiments performed in duplicate. Significant differences with respect to LPI values are considered due to lack of overlap of confidence intervals.

[3] = maximum effect relative to LPI 1 μM = 100%

Compound | Emax [1, 3] | melting point | further results
COc1ccc2c(c1)OC(C)(C)c1cn(CCN3CCN(C(=O)c4ccco4)CC3)nc1-2 [Example 2, 2-(2-(4-(2-furoyl)piperazinyl)ethyl)-2,4-dihydro-7-methoxy-4,4-dimethylchromeno[4,3-c]pyrazole] | 43% |  | 
COc1ccc2c(c1)OC(C)(C)c1cn(CCN3CCN(C(=O)c4ccccc4)CC3)nc1-2 [Example 4, 2-(2-(4-benzoyl-piperazinyl)ethyl)-2,4-dihydro-7-methoxy-4,4-dimethylchromeno[4,3-c]pyrazole] | 51% |  | 
lysophosphatidylinositol [LPI, reference compound] |  |  | EC50 ([2]; hGPR55-HEK293 cells, read-out: EC50 (nM) of LPI in the presence of example compound): 1.6 nM; Emax (%) of LPI in the presence of example compound ([2]; relative to LPI activity): 99 (90-108) %; EC50 ([1]; hGPR55-HEK293 cells, xCELLigence, 5 minutes after addition, 4 experiments, read-out: EC50 (nM), agonist action on GPR55): 2.82 nM; Emax (%), agonist action on GPR55 [1, 3]: 100 (81-118) %
COc1ccc2c(c1)OC(C)(C)c1cn(CCN3CCN(C(=O)c4cccs4)CC3)nc1-2 [Example 6, 2-(2-(4-(2-thienoyl)piperazinyl)ethyl)-2,4-dihydro-7-methoxy-4,4-dimethylchromeno[4,3-c]pyrazole] | 45% | 163 to 165 °C | 
COc1ccc2c(c1)OC(C)(C)c1cn(CNC(=O)CN3CCN(c4ccccc4OC)CC3)nc1-2 [Example 14, 2-(2-(4-(2-methoxyphenyl)piperazinyl)acetamidomethyl)-2,4-dihydro-7-methoxy-4,4-dimethylchromeno[4,3-c]pyrazole] | 51% |  | 
COc1ccc2c(c1)OC(C)(C)c1cn(CCN3CCN(C(=O)C4CCCO4)CC3)nc1-2 (stereo not shown) [Example 8, 2-(2-(4-(2-tetrahydrofuroyl)piperazinyl)ethyl)-2,4-dihydro-7-methoxy-4,4-dimethylchromeno[4,3-c]pyrazole] | 51% | 158 to 160 °C | 
COc1ccc2c(c1)OC(C)(C)c1cn(CCN3CCN(C(=O)C(C)(C)C)CC3)nc1-2 [Example 10, 2-(2-(4-pivaloyl-piperazinyl)ethyl)-2,4-dihydro-7-methoxy-4,4-dimethylchromeno[4,3-c]pyrazole] | 49% |  | 
COc1ccc2c(c1)OC(C)(C)c1cn(CCN3CCN(C(=O)COc4ccccc4)CC3)nc1-2 [Example 7, 2-(2-(4-phenoxyacetylpiperazinyl)ethyl)-2,4-dihydro-7-methoxy-4,4-dimethylchromeno[4,3-c]pyrazole] | 52% | 177 to 179 °C | 
COc1ccc2c(c1)OC(C)(C)c1cn(CCN3CCN(C(=O)C4CCCCC4)CC3)nc1-2 [Example 9, 2-(2-(4-cyclohexylcarbonyl-piperazinyl)ethyl)-2,4-dihydro-7-methoxy-4,4-dimethylchromeno[4,3-c]pyrazole] | 47% | 151 to 152 °C | 
